Biological target: T1, p38 MAP kinase (Homo sapiens, UniProt Q16539)
T1 construct: made in house; host or cells: E. coli (co-expressed with SEK-1 and MEKK)
Test: p38 (MAP) kinase in vitro assay (transfer of γ-33P from ATP to Myelin Basic Protein)
Format: biochemical
Conditions: phosphorylated recombinant p38 MAP kinase, MBP substrate, γ-33P-ATP, 30° C.
Description: This example illustrates a p38 (MAP) kinase in vitro assay useful for evaluating the compounds of the invention.
The p38 MAP kinase inhibitory activity of compounds of this invention in vitro was determined by measuring the transfer of the γ-phosphate from γ-^33P-ATP by p-38 kinase to Myelin Basic Protein (MBP), using a minor modification of the method described in Ahn, et al., J. Biol. Chem. 266:4220-4227 (1991).
The phosphorylated form of the recombinant p38 MAP kinase was co-expressed with SEK-1 and MEKK in E. Coli (see, Khokhlatchev, et al., J. Biol. Chem. 272:11057-11062 (1997)) and then purified by affinity chromatography using a Nickel column.
The phosphorylated p38 MAP kinase was diluted in kinase buffer (20 mM 3-(N-morpholino)propanesulfonic acid, pH 7.2, 25 mM β-glycerol phosphate, 5 mM ethylene glycol-bis(beta-aminoethyl ether)-N,N,N′,N′-tetraacetic acid, 1 mM sodium ortho-vanadate, 1 mM dithiothreitol, 40 mM magnesium chloride). Test compound dissolved in DMSO or only DMSO (control) was added and the samples were incubated for 10 min at 30° C. The kinase reaction was initiated by the addition of a substrate cocktail containing MBP and γ-^33P-ATP. […] The phosphorylated MBP was then separated from the residual γ-^33P-ATP using a phosphocellulose membrane (Millipore, Bedfrod, Mass.) and quantitated using a scintillation counter (Packard, Meriden, Conn.).

T1 sequence (Q16539 whole entry): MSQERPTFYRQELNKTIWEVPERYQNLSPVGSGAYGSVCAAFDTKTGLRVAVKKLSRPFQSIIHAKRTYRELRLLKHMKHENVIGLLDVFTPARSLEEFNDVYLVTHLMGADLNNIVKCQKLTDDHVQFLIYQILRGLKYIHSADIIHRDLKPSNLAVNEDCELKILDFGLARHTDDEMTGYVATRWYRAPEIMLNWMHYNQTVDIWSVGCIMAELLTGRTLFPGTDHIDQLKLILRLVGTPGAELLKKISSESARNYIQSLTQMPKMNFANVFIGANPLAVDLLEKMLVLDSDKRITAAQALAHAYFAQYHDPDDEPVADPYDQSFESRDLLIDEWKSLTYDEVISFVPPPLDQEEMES

CNC(=O)c1ccc(C)c(-c2cc3[nH]nc(N4CCCCC4)c3n(C)c2=O)c1 [Compound 8, 4,N-Dimethyl-3-(4-methyl-5-oxo-3-piperidin-1-yl-4,5-dihydro-1H-pyrazolo[4,3-b]pyridin-6-yl)-benzamide]
IC50: ~3 nM

— patent US20080207684A1, “Kinase inhibitors and methods for using the same” (Roche Palo Alto LLC, priority 2007, published 2008)
